“Also recorded” adds a separate entry of the source. Residues, ends and D or L forms follow the SMILES beside them.
How the values were obtained:
mutant (C46-G74) IIB RNA = format: binding, HIV-1; conditions: for Kd: read-out: Knonsp (apparent Kd, mutant IIB RNA)
Experimental: (§1) Gel shift assays were performed at 4° C. unless described otherwise. Peptide and RNA were incubated together for 15 min on ice in 10 μl binding reactions containing 10 mM HEPES-KOH, pH 7.5, 100 mM KCl, 1 mM MgCl2, 0.5 mM EDTA, 1 mM dithithreitol, 50 μg/ml E. coli tRNA, and 10% glycerol. To determine relative binding affinities, 0.5 nM radiolabeled IIB RNA (or IIB mutant) was titrated with peptide. Peptide-RNA complexes were resolved in 10% polyacrylamide, 0.5x TBE gels that had been prerun for 1 hr and allowed to cool to 4° C. Gels were electrophoresed at 220 V for 3 hr at 4° C., dried, and autoradiographed.
(§2) FIG. 3C. Relationship between helix content of the Rev34-50 peptides and RNA-binding specificity. Apparent Kd s (the peptide concentration at which 50% of the RNA was shifted) were determined for wild-type (specific; Ksp) and mutant (nonspecific; Knonsp) IIB RNAs from the date in FIGS. 3A and 3B. Specificity, the ratio of specific to nonspecific apparent association constants (Ka s) is plotted against the helix content for each peptide, determined from the CD ellipticity at 222 nm (Chen et al., (1974) "Determination of the Helix and Beta Form of Proteins in Aqueous Solution by Circular Dichroism" Biochemistry 13:3350-3359 ) Peptide I: helix=0.1%; ksp =2000 nM; Knonsp =3000 nM. Peptide II: helix=3.9%; Ksp =300 nM; Knonsp =2000 nM. Peptide III: helix=10.9%; Ksp =100 nM; Knonsp =2000 nM. Peptide IV: helix=27.9%; Ksp =40 nM; Knonsp =2000 nM. Peptide V: helix=51.2%; Ksp =20 nM; Knonsp 1500 nM.

[1] = system: IIB RNA mutant A71 (G71 to A71); assay: RNA-binding gel shift assay, A71 mutant IIB RNA; parameters: species or system HIV-1; conditions: in the presence of tRNA
Experimental: as §1
(§3) FIG. 1B. Peptide binding to IIB mutants. Binding reactions were carried out in the presence of tRNA at the peptide concentrations indicated, and free RNA and peptide-RNA complexes were resolved by the gel shift assay. Each pair of lanes corresponds to RNA alone and peptide-RNA binding reactions. […]. The wild-type lanes on both sides of the gel are identical. The slower mobility of the A71 mutant in the absence of peptide may indicate that its unbound conformation is different than wild-type IIB. […] This phenomenon has been seen with other mutant RNAs and with mutant Rev peptides, and has been interpreted as differences in RNA conformation between specific and nonspecific complexes (Kjems et al. (1992), supra).

[2] = system: IIB RNA mutant A47 (G47 to A47); assay: RNA-binding gel shift assay, A47 mutant IIB RNA; parameters: species or system HIV-1; conditions: in the presence of tRNA
Experimental: as §1, §3

wild-type RRE IIB RNA = format: binding, HIV-1; conditions: for Kd: read-out: Ksp (apparent Kd, wild-type IIB RNA)
Experimental: as §1, §2

[3] = Circular dichroism, α-helix content; format: physicochemical; conditions: for % Helix (α-helix content): from CD ellipticity at 222 nm, 4° C., pH 7.5
Experimental: CD spectra were measured using an Aviv model 62DS spectropolarimeter. Samples were prepared in 10 mM potassium phosphate buffer, pH 7.5 and 100 mM KF, and temperature was maintained at 4° C. unless described otherwise. Spectra were recorded from 320 nm to 190 nm using a 1 cm pathlength cuvette and the signal was averaged for 10 sec. Scans were repeated five times and averaged. Peptide concentrations were typically 5-20 μM and ellipticity was calculated per amino acid residue.
as §2

| SMILES | Reduction of affinity compared to wild-type IIB (mutant (C46-G74) IIB RNA; C46-G74 base pair mutant, in the presence of tRNA) | Reduction of affinity compared to wild-type IIB [1] | Reduction of affinity compared to wild-type IIB [2] | Kd (mutant (C46-G74) IIB RNA) [nM] | specific RNA binding / discrimination between wild-type and mutant IIB RNAs (in words) (wild-type RRE IIB RNA) | Kd (wild-type RRE IIB RNA) [nM] | α-helix content by CD (in words) ([3]; CD spectra) | % Helix (α-helix content) [3] [%] | % Helix (α-helix content) ([3]; listed as N-Rev34-50 --am) |
| --- | --- | --- | --- | --- | --- | --- | --- | --- | --- |
| C[C@H](NC(=O)[C@H](CCC(N)=O)NC(=O)[C@H](CCCNC(=N)N)NC(=O)[C@@H](N)[C@@H](C)O)C(=O)N[C@@H](CCCNC(=N)N)C(=O)N[C@@H](CCCNC(=N)N)C(=O)N[C@@H](CC(N)=O)C(=O)N[C@@H](CCCNC(=N)N)C(=O)N[C@@H](CCCNC(=N)N)C(=O)N[C@@H](CCCNC(=N)N)C(=O)N[C@@H](CCCNC(=N)N)C(=O)N[C@@H](Cc1c[nH]c2ccccc12)C(=O)N[C@@H](CCCNC(=N)N)C(=O)N[C@@H](CCC(=O)O)C(=O)N[C@@H](CCCNC(=N)N)C(=O)N[C@@H](CCC(N)=O)C(=O)N[C@@H](CCCNC(=N)N)C(N)=O [Rev34-50] (H-TRQARRNRRRRWRERQR-NH2) | about 10 fold | about 10 fold | about 10 fold | – | – | – | – | – | – |
| C[C@H](NC(=O)[C@H](CCC(N)=O)NC(=O)[C@H](CCCNC(=N)N)NC(=O)[C@@H](N)[C@@H](C)O)C(=O)N[C@@H](CCCNC(=N)N)C(=O)N[C@@H](CCCNC(=N)N)C(=O)N[C@@H](CC(N)=O)C(=O)N[C@@H](CCCNC(=N)N)C(=O)N[C@@H](CCCNC(=N)N)C(=O)N[C@@H](CCCNC(=N)N)C(=O)N[C@@H](CCCNC(=N)N)C(=O)N[C@@H](Cc1c[nH]c2ccccc12)C(=O)N[C@@H](CCCNC(=N)N)C(=O)N[C@@H](CCC(=O)O)C(=O)N[C@@H](CCCNC(=N)N)C(=O)N[C@@H](CCC(N)=O)C(=O)N[C@@H](CCCNC(=N)N)C(=O)O [Peptide I] (H-TRQARRNRRRRWRERQR-OH) | – | – | – | 3000 | binds only slightly better to wild-type IIB than to the mutant RNA; also recorded: essentially unable to discriminate between wild-type and mutant RNAs | 2000 | mostly unstructured | 0.1 | – |
| CC(=O)N[C@H](C(=O)N[C@@H](CCCNC(=N)N)C(=O)N[C@@H](CCC(N)=O)C(=O)N[C@@H](C)C(=O)N[C@@H](CCCNC(=N)N)C(=O)N[C@@H](CCCNC(=N)N)C(=O)N[C@@H](CC(N)=O)C(=O)N[C@@H](CCCNC(=N)N)C(=O)N[C@@H](CCCNC(=N)N)C(=O)N[C@@H](CCCNC(=N)N)C(=O)N[C@@H](CCCNC(=N)N)C(=O)N[C@@H](Cc1c[nH]c2ccccc12)C(=O)N[C@@H](CCCNC(=N)N)C(=O)N[C@@H](CCC(=O)O)C(=O)N[C@@H](CCCNC(=N)N)C(=O)N[C@@H](CCC(N)=O)C(=O)N[C@@H](CCCNC(=N)N)C(N)=O)[C@@H](C)O [Peptide III] (Ac-TRQARRNRRRRWRERQR-NH2) | – | – | – | 2000 | – | 100 | – | 10.9 | – |
| C[C@H](NC(=O)[C@H](CCC(N)=O)NC(=O)[C@H](CCCNC(=N)N)NC(=O)[C@@H](N)[C@@H](C)O)C(=O)N[C@@H](CCCNC(=N)N)C(=O)N[C@@H](CCCNC(=N)N)C(=O)N[C@@H](CC(N)=O)C(=O)N[C@@H](CCCNC(=N)N)C(=O)N[C@@H](CCCNC(=N)N)C(=O)N[C@@H](CCCNC(=N)N)C(=O)N[C@@H](CCCNC(=N)N)C(=O)N[C@@H](Cc1c[nH]c2ccccc12)C(=O)N[C@@H](CCCNC(=N)N)C(=O)N[C@@H](CCC(=O)O)C(=O)N[C@@H](CCCNC(=N)N)C(=O)N[C@@H](CCC(N)=O)C(=O)N[C@@H](CCCNC(=N)N)C(N)=O [Peptide II, N-Rev34-50 --am] (H-TRQARRNRRRRWRERQR-NH2) | – | – | – | 2000 | – | 300 | – | 3.9 | approximately 4% |

Reference: patent US5654398A, “Compositions and methods for inhibiting replication of human immunodeficiency virus-1” (priority 1993, dated 1997)
